What all share (type): cell-based
In experiment [1] the target is T1, human M1 receptor (Homo sapiens, UniProt P11229).
T1 sequence (P11229 1-460): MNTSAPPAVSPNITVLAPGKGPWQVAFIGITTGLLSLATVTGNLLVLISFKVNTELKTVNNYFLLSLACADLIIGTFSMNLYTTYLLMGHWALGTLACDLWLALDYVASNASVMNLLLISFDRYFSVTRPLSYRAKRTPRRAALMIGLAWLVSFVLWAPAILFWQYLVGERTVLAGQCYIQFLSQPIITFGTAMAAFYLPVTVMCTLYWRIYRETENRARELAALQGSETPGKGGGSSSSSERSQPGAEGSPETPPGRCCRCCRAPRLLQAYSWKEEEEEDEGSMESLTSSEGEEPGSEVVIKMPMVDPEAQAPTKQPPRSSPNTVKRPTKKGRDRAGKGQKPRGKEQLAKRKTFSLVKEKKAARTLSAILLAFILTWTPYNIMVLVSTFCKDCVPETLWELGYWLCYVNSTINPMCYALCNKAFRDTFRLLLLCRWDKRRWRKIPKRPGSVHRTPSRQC
The experiment is described as follows: In vitro functional assay of muscarinic acetylcholine receptor activity (aequorin calcium flux, antagonist mode vs EC80 acetylcholine), M1. In outline:
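Antagonism at M1 was measured as a concentration-dependent reduction of the EC80 acetylcholine-evoked aequorin luminescence, from which IC50 was derived. Human M1 CHO-K1 aequorin cells were first loaded with 5 uM coelenterazine h for 4 h and exposed to compound for 30 min at room temperature.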

Experiment [2] has as its target T2, M2 (Homo sapiens, UniProt P08172).
T2 sequence (P08172 1-466): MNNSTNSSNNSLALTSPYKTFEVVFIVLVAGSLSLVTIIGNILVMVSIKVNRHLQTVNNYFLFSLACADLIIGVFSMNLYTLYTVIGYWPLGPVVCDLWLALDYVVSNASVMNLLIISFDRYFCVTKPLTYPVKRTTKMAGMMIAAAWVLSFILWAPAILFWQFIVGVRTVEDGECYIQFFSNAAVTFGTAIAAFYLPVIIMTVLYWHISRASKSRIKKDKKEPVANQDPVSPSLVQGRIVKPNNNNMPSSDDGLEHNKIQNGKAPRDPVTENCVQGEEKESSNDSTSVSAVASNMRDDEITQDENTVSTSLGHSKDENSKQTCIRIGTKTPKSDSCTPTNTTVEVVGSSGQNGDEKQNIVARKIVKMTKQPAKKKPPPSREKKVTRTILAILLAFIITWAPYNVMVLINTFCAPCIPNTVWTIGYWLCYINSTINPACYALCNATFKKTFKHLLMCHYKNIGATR
The experiment can be described thus: In vitro functional assay of muscarinic acetylcholine receptor activity, M2.

For experiment [3], the target named is M3 (Homo sapiens, UniProt P20309). The experiment can be described thus: In vitro functional assay of muscarinic acetylcholine receptor activity, M3. Conditions: antagonist IC50 at M3; read-out: M3 IC50.
Chain of M3 (P20309 whole entry): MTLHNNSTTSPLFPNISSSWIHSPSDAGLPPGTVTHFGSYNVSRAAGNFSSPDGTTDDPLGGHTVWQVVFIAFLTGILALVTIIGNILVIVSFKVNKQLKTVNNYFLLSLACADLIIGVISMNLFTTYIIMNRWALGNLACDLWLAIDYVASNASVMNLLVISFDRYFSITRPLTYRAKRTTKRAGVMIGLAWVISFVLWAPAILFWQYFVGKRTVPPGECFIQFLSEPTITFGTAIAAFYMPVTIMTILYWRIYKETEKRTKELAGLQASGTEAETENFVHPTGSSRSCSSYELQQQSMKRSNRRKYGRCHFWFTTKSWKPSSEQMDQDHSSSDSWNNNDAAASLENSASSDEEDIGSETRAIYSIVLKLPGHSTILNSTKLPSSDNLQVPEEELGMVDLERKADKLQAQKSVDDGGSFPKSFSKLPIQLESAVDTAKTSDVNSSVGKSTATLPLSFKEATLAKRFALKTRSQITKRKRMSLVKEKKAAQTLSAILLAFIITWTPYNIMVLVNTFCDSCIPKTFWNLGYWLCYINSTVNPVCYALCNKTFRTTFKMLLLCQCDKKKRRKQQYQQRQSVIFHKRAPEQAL
The mark [4] stands for this setting: CHO-K1 cells stably expressing human M1 receptor with Aequorin, decrease in EC80 acetylcholine response, read-out: M1 IC50.
Setting [5] is: antagonist IC50 at M2, read-out: M2 IC50.

What is called IC50 is the concentration that inhibits the measured activity by half.

Like-named read-outs stand apart in the source and are kept apart here. Where only a bound is given, the exact number is not on record here.

Consider `Cc1cc(F)cnc1N1CCN(C(=O)COCc2cccc3ncccc23)[C@@H](C)C1` [Example 87, (S)-1-(4-(5-fluoro-3-methylpyridin-2-yl)-2-methylpiperazin-1-yl)-2-(quinolin-5-ylmethoxy)ethan-1-one], for which the IC50 in experiment [1] (setting [4]), in experiment [2] (setting [5]) and in experiment [3] was 1000 to 10000 nM each time.
Regarding `Cc1cc(F)cnc1N1CCN(C(=O)COCc2cccc3ncsc23)[C@@H](C)C1` [Example 88, (S)-2-(benzo[d]thiazol-7-ylmethoxy)-1-(4-(5-fluoro-3-methylpyridin-2-yl)-2-methylpiperazin-1-yl)ethan-1-one], the IC50 in experiment [1] (setting [4]) is 1000 to 10000 nM; in experiment [2] (setting [5]), 1000 to 10000 nM; in experiment [3], more than 10000 nM.
In the case of `Cc1cc(F)cnc1N1CCN(C(=O)CNCc2cccc3ncsc23)[C@@H](C)C1` [Example 89, (S)-2-((benzo[d]thiazol-7-ylmethyl)amino)-1-(4-(5-fluoro-3-methylpyridin-2-yl)-2-methylpiperazin-1-yl)ethan-1-one], the values for the IC50 in experiment [1] (setting [4]), in experiment [2] (setting [5]) and in experiment [3] were 1000 to 10000 nM, more than 10000 nM and more than 10000 nM, respectively.
With `C[C@H]1CN(c2ncc(F)cc2C#N)CCN1C(=O)CCCc1cccc2ncccc12` [Example 90, (S)-5-fluoro-2-(3-methyl-4-(4-(quinolin-5-yl)butanoyl)piperazin-1-yl)nicotinonitrile], the results for the IC50 in experiment [1] (setting [4]), in experiment [2] (setting [5]) and in experiment [3] were more than 10000 nM, 1000 to 10000 nM and more than 10000 nM, respectively.
In the case of `C[C@H]1CN(c2ncc(F)cc2F)CCN1C(=O)CCCc1cccc2ncccc12` [Example 91, (S)-1-(4-(3,5-difluoropyridin-2-yl)-2-methylpiperazin-1-yl)-4-(quinolin-5-yl)butan-1-one], the results for the IC50 in experiment [1] (setting [4]), in experiment [2] (setting [5]) and in experiment [3] were 100 to 1000 nM, 1000 to 10000 nM and 1000 to 10000 nM, respectively.
`COc1cnccc1N1CCN(C(=O)CCCc2cccc3ncccc23)[C@@H](C)C1` [Example 92, (S)-1-(4-(3-methoxypyridin-4-yl)-2-methylpiperazin-1-yl)-4-(quinolin-5-yl)butan-1-one]: the IC50 is less than 100 nM in experiment [1] (setting [4]), 100 to 1000 nM in experiment [2] (setting [5]) and 1000 to 10000 nM in experiment [3].
Consider `Cc1ncccc1N1CCN(C(=O)CCCc2cccc3ncccc23)[C@@H](C)C1` [Example 93, (S)-1-(2-methyl-4-(2-methylpyridin-3-yl)piperazin-1-yl)-4-(quinolin-5-yl)butan-1-one], for which the IC50 in experiment [1] (setting [4]), in experiment [2] (setting [5]) and in experiment [3] was more than 10000 nM each time.
Take `Cc1cc(F)cnc1N1CCN(C(=O)CCCc2cccc3ncc(CO)cc23)[C@@H](C)C1` [Example 94, (S)-1-(4-(5-fluoro-3-methylpyridin-2-yl)-2-methylpiperazin-1-yl)-4-(3-(hydroxymethyl)quinolin-5-yl)butan-1-one]: the 50% inhibitory concentration (IC50) in experiment [1] (setting [4]) lay in the range of 100 to 1000 nM; in experiment [2] (setting [5]), 100 to 1000 nM; in experiment [3] it was 1000 to 10000 nM.
Turning to `O=C(CCS(=O)(=O)c1cccc2ncsc12)N1C[C@H]2CC[C@@H](C1)N2c1ccncc1F` [Example 95, 3-(benzo[d]thiazol-7-ylsulfonyl)-1-((1R,5S)-8-(3-fluoropyridin-4-yl)-3,8-diazabicyclo[3.2.1]octan-3-yl)propan-1-one], the IC50 is less than 100 nM in experiment [1], less than 100 nM in experiment [2] (setting [5]) and 100 to 1000 nM in experiment [3].
For the compound `Cc1cc(F)cnc1N1CCN(C(=O)CCS(=O)(=O)c2cccc3ncccc23)[C@@H](C)C1` [Example 96, (S)-1-(4-(5-fluoro-3-methylpyridin-2-yl)-2-methylpiperazin-1-yl)-3-(quinolin-5-ylsulfonyl)propan-1-one], the IC50 is 100 to 1000 nM in experiment [1] (setting [4]), 1000 to 10000 nM in experiment [2] (setting [5]) and more than 10000 nM in experiment [3].
The matching figures for `Cc1cc(F)cnc1N1CCN(C(=O)CCCS(=O)(=O)c2cccc3ncsc23)[C@@H](C)C1` [Example 97, (S)-4-(benzo[d]thiazol-7-ylsulfonyl)-1-(4-(5-fluoro-3-methylpyridin-2-yl)-2-methylpiperazin-1-yl)butan-1-one]: 1000 to 10000 nM, 1000 to 10000 nM and 1000 to 10000 nM.
The corresponding values for `Cc1nc2cccc(S(=O)(=O)CCCC(=O)N3CCN(c4ncc(F)cc4C)C[C@@H]3C)c2o1` [Example 98, (S)-1-(4-(5-fluoro-3-methylpyridin-2-yl)-2-methylpiperazin-1-yl)-4-((2-methylbenzo[d]oxazol-7-yl)sulfonyl)butan-1-one] are 1000 to 10000 nM, 1000 to 10000 nM and more than 10000 nM.
The matching figures for `O=C(CCS(=O)(=O)c1cccc2ncsc12)N1CCN(c2ccnc(C(F)(F)F)c2)CC1` [Example 99, 3-(benzo[d]thiazol-7-ylsulfonyl)-1-(4-(2-(trifluoromethyl)pyridin-4-yl)piperazin-1-yl)propan-1-one]: 1000 to 10000 nM, 1000 to 10000 nM and more than 10000 nM.
Turning to `C[C@H]1CN(c2cnccc2Cl)CCN1C(=O)CCS(=O)(=O)c1cccc2ncsc12` [Example 101, (S)-3-(benzo[d]thiazol-7-ylsulfonyl)-1-(4-(4-chloropyridin-3-yl)-2-methylpiperazin-1-yl)propan-1-one], the IC50 in experiment [1] (setting [4]) is 100 to 1000 nM; in experiment [2] (setting [5]), 1000 to 10000 nM; in experiment [3], more than 10000 nM.
The matching figures for `O=C(CCS(=O)(=O)c1cccc2ncsc12)N1CCN(c2ccc(C(F)(F)F)cn2)CC1` [Example 102, 3-(benzo[d]thiazol-7-ylsulfonyl)-1-(4-(5-(trifluoromethyl)pyridin-2-yl)piperazin-1-yl)propan-1-one]: less than 100 nM, 1000 to 10000 nM and 1000 to 10000 nM.
`Cc1nc2cccc(S(=O)(=O)CCC(=O)N3C[C@H]4CC[C@@H](C3)N4c3ccncc3F)c2o1` [Example 103, 1-((1R,5S)-8-(3-fluoropyridin-4-yl)-3,8-diazabicyclo[3.2.1]octan-3-yl)-3-((2-methylbenzo[d]oxazol-7-yl)sulfonyl)propan-1-one]: the half-maximal inhibitory concentration (IC50) in experiment [1] is less than 100 nM; in experiment [2] it was 100 to 1000 nM; in experiment [3], 1000 to 10000 nM.
As to `O=C(CCS(=O)(=O)c1cccc2nccn12)N1C[C@H]2CC[C@@H](C1)N2c1ccncc1F` [Example 104, 1-((1R,5S)-8-(3-fluoropyridin-4-yl)-3,8-diazabicyclo[3.2.1]octan-3-yl)-3-(imidazo[1,2-a]pyridin-5-ylsulfonyl)propan-1-one], the figures for the IC50 in experiment [1], in experiment [2] (setting [5]) and in experiment [3] were less than 100 nM, 1000 to 10000 nM and 1000 to 10000 nM, respectively.
Regarding `O=C(CCS(=O)(=O)c1cccc2ncsc12)N1CCN(c2c(Cl)cncc2Cl)CC1` [Example 105, 3-(benzo[d]thiazol-7-ylsulfonyl)-1-(4-(3,5-dichloropyridin-4-yl)piperazin-1-yl)propan-1-one], the half-inhibitory concentration (IC50) in experiment [1] (setting [4]), in experiment [2] (setting [5]) and in experiment [3] was 1000 to 10000 nM in each case.
Regarding `O=C(CCS(=O)(=O)c1cccc2nccn12)N1CCN(c2ccc(C(F)(F)F)cn2)CC1` [Example 106, 3-(imidazo[1,2-a]pyridin-5-ylsulfonyl)-1-(4-(5-(trifluoromethyl)pyridin-2-yl)piperazin-1-yl)propan-1-one], the IC50 in experiment [1] (setting [4]) is 1000 to 10000 nM; in experiment [2] (setting [5]), 1000 to 10000 nM; in experiment [3], more than 10000 nM.
As for `Cc1cncc(Cl)c1N1CCN(C(=O)CCS(=O)(=O)c2cccc3ncsc23)CC1` [Example 107, 3-(benzo[d]thiazol-7-ylsulfonyl)-1-(4-(3-chloro-5-methylpyridin-4-yl)piperazin-1-yl)propan-1-one], the IC50 in experiment [1] (setting [4]) is 1000 to 10000 nM; in experiment [2] (setting [5]) it was more than 10000 nM; in experiment [3], 1000 to 10000 nM.
Turning to `Cc1cncc(Cl)c1N1CCN(C(=O)CCS(=O)(=O)c2cccc3ncsc23)[C@@H](C)C1` [Example 108, (S)-3-(benzo[d]thiazol-7-ylsulfonyl)-1-(4-(3-chloro-5-methylpyridin-4-yl)-2-methylpiperazin-1-yl)propan-1-one], the IC50 in experiment [1] (setting [4]) is 100 to 1000 nM; in experiment [2] (setting [5]) it was more than 10000 nM; in experiment [3], 1000 to 10000 nM.
Regarding `Cc1nc2cccc(S(=O)(=O)CCC(=O)N3CCN(c4ccc(C(F)(F)F)cn4)CC3)c2o1` [Example 109, 3-((2-methylbenzo[d]oxazol-7-yl)sulfonyl)-1-(4-(5-(trifluoromethyl)pyridin-2-yl)piperazin-1-yl)propan-1-one], the values for the IC50 in experiment [1] (setting [4]), in experiment [2] (setting [5]) and in experiment [3] were 1000 to 10000 nM, more than 10000 nM and more than 10000 nM, respectively.

For the origin of these results see patent US11512090B2, “Muscarinic acetylcholine M1 receptor antagonists” (PIPELINE THERAPEUTICS, INC., priority 2018, dated 2022).
